{
  "source": "patent US20070078185A1",
  "about": "“Methods and compositions for controlling invertebrate pests” (priority 2005, published 2007)",
  "key": {"C. elegans [1]": {"tested_on": "C. elegans", "assay": "In vivo response test: suppression of head oscillations in response to anterior touch, C. elegans on agar plates", "conditions": "compound added to C. elegans grown on agar plates at 0.3 mg/ml", "experimental": "Behavioral assays were performed with young adults at room temperature (22-24° C.) and the different genotypes were scored in parallel on independent days. Egg-laying assays were performed as described by Koelle and Horvitz (Cell 84:115 (1996)). Suppression of head oscillations was tested by striking animals that were outside the bacterial lawn with a fine eyelash behind the posterior bulb of the pharynx; head oscillations were scored during backing response. Nose touch, osmotic avoidance touch were tested as previously described (see, for example, Way et al., Genes Dev. 3:1823-1833 (1989); or Bargmann et al., Cold Spring Harb. Symp. Quant. Biol. 55:529-538 (1990)). […] Animals were tested twenty-four hours after they were picked as late L4. Laser-ablated animals were tested at least ten times. […] Laser ablated animals were tested at least 20 times. Reversal assays were performed as described by Tsalik et al., J. Neurobiol. 56:178-197 (2003). Synthesis of 4-hydrazinomethyl-benzene-1,3-diol (compound 1). [drawing 4]\nAlternatively, putative tyrosine decarboxylase inhibitors can be screened in vivo by observing its effect on invertebrates. […] Furthermore, a tyrosine decarboxylase inhibitor is expected to cause egg laying defects in nematodes, fruit flies, and other invertebrates. […]"}, "C. elegans [2]": {"tested_on": "C. elegans", "conditions": "exogenous octopamine (Horvitz et al., Science 216:1012-1014 (1982)); cited from earlier work"}, "C. elegans [3]": {"tested_on": "C. elegans", "assay": "Egg-laying assay with exogenous amine on Petri plates", "type": "in vivo", "conditions": "wild-type animals, Petri plates with bacteria containing 20 mM tyramine", "experimental": "FIGS. 5A-SC are graphs showing that tdc-1 mutant nematodes are hyperactive in egg laying. […] Error bars indicate standard errors of the means. […] Single wild-type animals were transferred to Petri dishes with bacteria containing either no tyramine (n=13) or 20 mM tyramine (n=12). At the indicated times after transfer the number of eggs laid was counted. Error bars indicate standard errors ofthe means.\nWe therefore tested the effect of exogenous tyramine on egg laying behavior. Egg laying was inhibited on Petri plates containing 20 mM tyramine (FIG. 5C). […] Egg laying is regulated in part by the serotonergic HSN neurons, which induce muscle contraction of the vulva muscles (Trent et al., Genetics 104:619-647 (1983)).\nBehavioral assays were performed with young adults at room temperature (22-24° C.) and the different genotypes were scored in parallel on independent days. Egg-laying assays were performed as described by Koelle and Horvitz (Cell 84:115 (1996)). Suppression of head oscillations was tested by striking animals that were outside the bacterial lawn with a fine eyelash behind the posterior bulb of the pharynx; head oscillations were scored during backing response. Nose touch, osmotic avoidance touch were tested as previously described (see, for example, Way et al., Genes Dev. 3:1823-1833 (1989); or Bargmann et al., Cold Spring Harb. Symp. Quant. Biol. 55:529-538 (1990)). […]"}},
  "data": [
    {"smiles": "NC(CO)C(=O)NNCc1ccc(O)cc1O", "note": "(racemic) [compound 2, N-(DL-seryl)-N′-(2,4,-dihydroxybenzyl) hydrazine]", "values": [
      {"measurement": "suppression of head oscillations in response to anterior touch", "setting": "C. elegans [1]", "value": "fail to suppress head oscillations"}
    ]},
    {"smiles": "NCC(O)c1ccc(O)cc1", "note": "(stereo not drawn) [octopamine]", "values": [
      {"measurement": "effect of exogenous octopamine on egg laying", "setting": "C. elegans [2]", "value": "inhibitory effect"}
    ]},
    {"smiles": "NCCc1ccc(O)cc1", "note": "[tyramine]", "values": [
      {"measurement": "effect of exogenous tyramine on egg laying", "setting": "C. elegans [3]", "value": "inhibited"}
    ]}
  ]
}
